Key:
[1] = tested on: black bean aphids (Aphis fabae); test: Dip test: field bean plants (Vicia faba) and aphids dipped into solution of preparation, aphid mortality; conditions: plants and aphids dipped 5 seconds; after 3 and 6 days of storage; concentration 500 ppm or less
Method: Germinated field bean seeds (Vicia faba) with seed roots were transferred into brown glass bottles filled with tap water and then populated with about 100 black bean aphids (Aphis fabae). Plants and aphids were then dipped into an aqueous solution of the formulated preparation to be examined for 5 seconds. After they had drained, plants and animals were stored in a climatized chamber (16 hours of light/day, 25° C., 40-60% relative atmospheric humidity). After 3 and 6 days of storage, the mortality of the preparation on the aphids was determined.

[2] = tested on: black bean aphids (Aphis fabae); test: Root-systemic test: solution pipetted into bottle with field bean (Vicia faba), aphid mortality; conditions: 4 ml aqueous solution pipetted into bottle; after 3 and 6 days of storage; concentration 500 ppm or less
Method: Germinated field bean seeds (Vicia faba) with seed roots were transferred into brown glass bottles filled with tap water. Four milliliters of an aqueous solution of the formulated preparation to be examined were pipetted into the brown glass bottle. The field bean was then heavily populated with about 100 black bean aphids (Aphis fabae). Plants and aphids were then stored in a climatized chamber (16 hours of light/day, 25° C., 40-60% relative atmospheric humidity). After 3 and 6 days of storage, the root-systemic effect of the preparation as aphid mortality was determined.

| Compound | mortality of the preparation on the aphids [1] | root-systemic effect of the preparation as aphid mortality [2] |
| --- | --- | --- |
| O=C(NSC1CCCC1)c1cnccc1C(F)(F)F [Example 1] | active | active |
| O=C(NSc1ccccc1)c1cnccc1C(F)(F)F [Example 2] | active | active |
| CCN(Sc1ccccc1)C(=O)c1cnccc1C(F)(F)F [Example 3] | active | active |
| CC(C)N(Sc1ccccc1)C(=O)c1cnccc1C(F)(F)F [Example 4] | active | active |
| Cc1ccc(SN(C(=O)c2cnccc2C(F)(F)F)C(C)C)cc1 [Example 6] | active | active |
| O=C(NSc1ccc(Cl)cc1)c1cnccc1C(F)(F)F [Example 18] | active | active |
| O=C(NSc1ccc(F)cc1)c1cnccc1C(F)(F)F [Example 23] | active | active |
| CC(C)SNC(=O)c1cnccc1C(F)(F)F [Example 29] | active | active |
| CCC(C)CSNC(=O)c1cnccc1C(F)(F)F (stereo not shown) [Example 38] | active | active |
| C=CCSNC(=O)c1cnccc1C(F)(F)F [Example 44] | active | active |
| CC(C)CCSNC(=O)c1cnccc1C(F)(F)F [Example 45] | active | active |
| CCCCCSNC(=O)c1cnccc1C(F)(F)F [Example 48] | active | active |
| CCCCCCSNC(=O)c1cnccc1C(F)(F)F [Example 49] | active | active |
| CCCCCCCSNC(=O)c1cnccc1C(F)(F)F [Example 50] | active | active |
| O=C(NSCc1ccc(C(F)(F)F)cc1)c1cnccc1C(F)(F)F [Example 84] | active | active |
| O=C(NSCc1cccc(C(F)(F)F)c1)c1cnccc1C(F)(F)F [Example 85] | active | active |
| O=C(NSC1CC1)c1cnccc1C(F)(F)F [Example 98] | active | active |
| CC(C)SN=C(OCCC(C)[N+](=O)[O-])c1cnccc1C(F)(F)F (stereo not shown) [Example 124] | active | active |
| O=C(NSC1CCCCC1)c1cnccc1C(F)(F)F [Example A, N-cyclohexylthio-(4-trifluoromethyl)nicotinamide] | active | active |
| CCC(C)SNC(=O)c1cnccc1C(F)(F)F (stereo not shown) [Example B, N-(2-butylthio)-(4-trifluoromethyl)nicotinamide] | active | active |

Source: patent publication US7629348B2, “Heterocyclic amide and imine derivatives, processes for their preparation, compositions comprising them and their use as pesticides” (Merial Limited, priority 2001, dated 2009)
